Like-named read-outs stand apart in the source and are kept apart here.
Assays:
Format in all cases: cell-based
Frizzled1-GFP = molecular target: T1, Frizzled1-GFP (Homo sapiens, UniProt Q9UP38); assay: Frizzled internalization assay (Fzd1-GFP); design: key: Punctate similar to control=0; trace amount of punctate greater than control=1; moderate=3; strong=5; settings: 6 hours, 0-5 point scale
T1 construct: expressed in transfected cells
Protocol: The Fzd1-GFP assay was performed following a procedure similar to previously published work (Chen, M. Y.; Wang, J. B.; Lu, J. Y.; Bond, M. C.; Ren, X. R.; Lyerly, H. K.; Barak, L. S.; Chen, W. Biochemistry 2009, 48, 10267). Cells stably expressing Frizzled1-GFP plated in confocal dishes were treated, after 24 hours, with 12.5 μM of test compound or DMSO for 6 hours at 37° C. followed by fixation with 4% paraformaldehyde. The cells were then examined by microscopy using a LSM 510-Meta confocal microscope (Carl Zeiss, Thornwood, N.Y., USA) equipped with 40× and 100× apo chromat objectives. YFP was excited using a 488-nm argon laser line. Images were processed using the LSM software Image Browser (CarlZeiss, Thornwood, N.Y., USA). Plates were read twice in blinded fashion using a 0-5 point scale. ^aPunctate similar to control=0, trace amount of punctate greater than control=1, moderate=3, strong=5.

[1] = system: Wnt/β-catenin transcription; assay: Wnt-3A-stimulated TOPFlash reporter assay in HEK293 cells; settings: for IC50: Wnt-3A conditioned medium, 8 hour treatment, read-out: Inhibition Wnt/β-catenin transcription TopFlash IC50
Protocol: Stably transfected cells were seeded in 100 μl of cell growth medium/well in 96-well plates at 100% confluency. Fifty microliters of Wnt-3A conditioned medium containing the chemical compounds to be tested or DMSO was added to each well. After an 8 hour treatment, the cells were washed once with PBS and lysed with 55 μl of Passive Lysis Buffer supplied in the Dual-Luciferase Reporter Assay kit (Promega, Madison, Wis.). Twenty-five microliters of cell lysate was used for measuring luciferase activity in a 96-well plate reader (FluoStar Optima, BMG Labtech, Chicago, Ill.). Data were fit using GraphPad Prism (mean±SEM, n>=2).

[2] = system: colon cancer cell line HCT116; assay: Cell proliferation assay (MTS); settings: HCT116, up to 10 μM
Protocol: The colon cancer cell line HCT116 was used in the cell proliferation assay. The cells were plated in 100 μl of growing medium/well in 96-well plates at 5,000 cells per well and treated with compounds from 0.04 to 10 μM for 72 hours, after which point the cells were analyzed by colorimetric MTS assay (Promega, Madison, Wis., USA). Data were fit using GraphPad Prism (mean±SEM, n 3).

T1 sequence (Q9UP38 70-647): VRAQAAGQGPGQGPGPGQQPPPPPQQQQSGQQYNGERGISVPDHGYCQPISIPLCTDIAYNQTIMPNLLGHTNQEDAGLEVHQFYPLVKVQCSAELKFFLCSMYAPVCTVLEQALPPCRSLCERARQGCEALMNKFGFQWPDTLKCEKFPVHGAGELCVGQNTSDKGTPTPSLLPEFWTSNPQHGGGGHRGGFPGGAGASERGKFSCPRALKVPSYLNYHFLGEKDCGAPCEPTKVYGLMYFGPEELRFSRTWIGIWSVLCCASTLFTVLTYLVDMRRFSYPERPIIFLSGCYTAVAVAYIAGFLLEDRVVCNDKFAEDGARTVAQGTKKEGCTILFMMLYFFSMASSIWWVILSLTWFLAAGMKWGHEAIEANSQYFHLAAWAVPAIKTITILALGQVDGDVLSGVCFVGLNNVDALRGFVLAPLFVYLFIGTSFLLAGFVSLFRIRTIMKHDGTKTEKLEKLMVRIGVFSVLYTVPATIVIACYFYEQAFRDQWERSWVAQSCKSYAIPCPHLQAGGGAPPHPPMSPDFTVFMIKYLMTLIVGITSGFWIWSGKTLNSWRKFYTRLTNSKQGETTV

Row | SMILES | Fzd1-GFP internalization @12.5 μM (Frizzled1-GFP) | IC50 ([1]; Homo sapiens, HEK293, 8 h) [µM] | also measured
1 | O=C(Nc1ccccc1)c1cc(Cl)ccc1O [Compound 1, 5-chloro-2-hydroxy-N-phenylbenzamide] | 0 | 11.8 | –
2 | O=C(Nc1ccc([N+](=O)[O-])cc1)c1cc(Cl)ccc1O [Compound 2, 5-chloro-2-hydroxy-N-(4-nitrophenyl)benzamide] | 5 | – | IC50 [1]: 0.99 ± 0.32 µM
3 | CC(=O)c1ccc(NC(=O)c2cc(Cl)ccc2O)cc1 [Compound 3, N-(4-acetylphenyl)-5-chloro-2-hydroxybenzamide] | 0 | 6.42 ± 0.51 | –
4 | NC(=O)c1ccc(NC(=O)c2cc(Cl)ccc2O)cc1 [Compound 4, N-(4-carbamoylphenyl)-5-chloro-2-hydroxybenzamide] | 0 | > 12 | –
5 | CS(=O)(=O)c1ccc(NC(=O)c2cc(Cl)ccc2O)c(Cl)c1 [Compound 5, 5-chloro-N-(2-chloro-4-(methylsulfonyl)phenyl)-2-hydroxybenzamide] | 0 | 7.66 | –
6 | O=C(c1ccccc1)c1ccc(NC(=O)c2cc(Cl)ccc2O)cc1 [Compound 6, N-(4-benzoylphenyl)-5-chloro-2-hydroxybenzamide] | 0 | 15 | –
7 | O=C(Nc1cccc(C(F)(F)F)c1)c1cc(Cl)ccc1O [Compound 9, 5-chloro-2-hydroxy-N-(3-(trifluoromethyl)phenyl)benzamide] | 5 | 0.89 ± 0.32 | –
8 | O=C(Nc1ccc(C(F)(F)F)cc1F)c1cc(Cl)ccc1O [Compound 10, 5-chloro-N-(2-fluoro-4-(trifluoromethyl)phenyl)-2-hydroxybenzamide] | 5 | 0.55 ± 0.11 | –
9 | O=C(Nc1ccc(Cl)cc1)c1cc(Cl)ccc1O [Compound 11, 5-chloro-N-(4-chlorophenyl)-2-hydroxybenzamide] | 0 | 1.3 ± 0.18 | –
10 | O=C(Nc1cccc(Cl)c1)c1cc(Cl)ccc1O [Compound 12, 5-chloro-N-(3-chlorophenyl)-2-hydroxybenzamide] | 5 | 1.65 ± 0.12 | –
11 | O=C(Nc1ccccc1Cl)c1cc(Cl)ccc1O [Compound 13, 5-chloro-N-(2-chlorophenyl)-2-hydroxybenzamide] | 1 | 3.05 ± 0.87 | –
12 | O=C(Nc1cc(Cl)ccc1Cl)c1cc(Cl)ccc1O [Compound 15, 5-chloro-N-(2,5-dichlorophenyl)-2-hydroxybenzamide] | 5 | 0.75 ± 0.13 | –
13 | O=C(Nc1cc(Cl)cc(Cl)c1)c1cc(Cl)ccc1O [Compound 16, 5-chloro-N-(3,5-dichlorophenyl)-2-hydroxybenzamide] | 5 | 0.7 ± 0.13 | –
14 | O=C(Nc1ccc(Cl)c(Cl)c1)c1cc(Cl)ccc1O [Compound 17, 5-chloro-N-(3,4-dichlorophenyl)-2-hydroxybenzamide] | 5 | – | IC50 ([1]; Homo sapiens, HEK293): 0.73 ± 0.13 µM
15 | O=C(Nc1ccc(F)cc1)c1cc(Cl)ccc1O [Compound 19, 5-chloro-N-(4-fluorophenyl)-2-hydroxybenzamide] | 0 | 3.84 ± 0.29 | –
16 | O=C(Nc1ccc(F)cc1F)c1cc(Cl)ccc1O [Compound 20, 5-chloro-N-(2,4-difluorophenyl)-2-hydroxybenzamide] | 2 | 4.02 ± 0.79 | –
17 | O=C(Nc1ccc(F)cc1Cl)c1cc(Cl)ccc1O [Compound 22, 5-chloro-N-(2-chloro-4-fluorophenyl)-2-hydroxybenzamide] | 3 | 1.41 ± 0.21 | –
18 | O=C(Nc1ccc(F)c(Cl)c1)c1cc(Cl)ccc1O [Compound 23, 5-chloro-N-(3-chloro-4-fluorophenyl)-2-hydroxybenzamide] | 5 | 1.21 ± 0.17 | –
19 | O=C(NCc1ccc(C(F)(F)F)cc1)c1cc(Cl)ccc1O [Compound 25, 5-chloro-2-hydroxy-N-(4-(trifluoromethyl)benzyl)benzamide] | 0 | 15.1 ± 1.4 | –
20 | O=C(NC(=O)c1cc(Cl)ccc1O)c1ccc(C(F)(F)F)cc1 [Compound 57, 5-Chloro-2-hydroxy-N-(4-(trifluoromethyl)benzoyl)benzamide] | 0 | > 12 | –
21 | O=S(=O)(Nc1ccc(C(F)(F)F)cc1Cl)c1cc(Cl)ccc1O [Compound 58, 5-Chloro-N-(2-chloro-4-(trifluoromethyl)phenyl)-2-hydroxybenzenesulfonamide] | 1 | 2.57 ± 0.27 | Anti-proliferation activity, MTS assay, in words [2]: no effect
22 | CC(=O)Oc1ccc(Cl)cc1C(=O)Nc1ccc(C(F)(F)F)cc1Cl [Compound 59, 4-Chloro-2-((2-chloro-4-(trifluoromethyl)phenyl)carbamoyl)phenyl acetate] | 5 | – | IC50 ([1]; Homo sapiens, HEK293): 0.32 ± 0.03 µM
23 | CCCCC/C=C\C/C=C\CCCCCCCC(=O)Oc1ccc(Cl)cc1C(=O)Nc1ccc([N+](=O)[O-])cc1Cl [Compound 69, 4-chloro-2-((2-chloro-4-nitrophenyl)carbamoyl)phenyl (9Z,12Z)-octadeca-9,12-dienoate] | – | – | inhibition at 2 µM ([1]; Homo sapiens, HEK293, 8 h): 85%
24 | O=C(Nc1ccc([N+](=O)[O-])cc1Cl)c1cc(Cl)ccc1OC(=O)N1CCOCC1 [Compound 71, 4-chloro-2-((2-chloro-4-nitrophenyl)carbamoyl)phenyl morpholine-4-carboxylate] | – | – | Inhibition Wnt/β-catenin transcription TopFlash, % inhibition @ 20 μM ([1]; 20 μM): 60% inhibition
25 | CCCCCCCCOC(=O)Oc1ccc(Cl)cc1C(=O)Nc1ccc([N+](=O)[O-])cc1Cl [Compound 72, 4-chloro-2-((2-chloro-4-nitrophenyl)carbamoyl)phenyl octyl carbonate] | – | 0.5 | –
26 | O=c1oc2ccc(Cl)cc2c(=O)n1-c1ccc([N+](=O)[O-])cc1Cl [Compound 75, 6-chloro-3-(2-chloro-4-nitrophenyl)-2H-benzo[e][1,3]oxazine-2,4(3H)-dione] | – | 0.37 ± 0.13 | –
27 | O=c1oc2ccc(Cl)cc2c(=O)n1-c1ccc(C(F)(F)F)cc1F [Compound 76, 6-chloro-3-(2-fluoro-4-(trifluoromethyl)phenyl)-2H-benzo[e][1,3]oxazine-2,4(3H)-dione] | – | – | Inhibition Wnt/β-catenin transcription TopFlash, % inhibition @ 1 μM ([1]; 1 μM): 90% @ 1 μM
28 | CCCCCCC(=O)Oc1ccc(Cl)cc1C(=O)N(C(=O)CCCCCC)c1ccc([N+](=O)[O-])cc1Cl [Compound 77, 4-Chloro-2-((2-chloro-4-nitrophenyl)(heptanoyl)carbamoyl)phenyl heptanoate] | – | 1.6 | –
29 | CCCCCCCCOC(=O)O/C(=N/c1ccc([N+](=O)[O-])cc1Cl)c1cc(Cl)ccc1OC(=O)OCCCCCCCC [Compound 79, 5-chloro-N-(2-chloro-4-nitrophenyl)-2-(((octyloxy)carbonyl)oxy)benzimidic (octyl carbonic) anhydride] | – | 0.8 | –
30 | O=C(Nc1ccc(Br)cc1)c1cc(Br)ccc1O [D, 5-bromo-N-(4-bromophenyl)-2-hydroxybenzamide, reference compound] | – | – | inhibition at 2 µM ([1]; Homo sapiens, HEK293, 8 h): 60%
